This note sets out measurements from patent US20210163489A1, “PYRAZOLOPYRIMIDINE DERIVATIVES AND THE COMPOSITIONS AND METHODS OF TREATMENT REGARDING THE SAME” (NysnoBio Ireland DAC, priority 2016, published 2021).

Values joined by “and” are separate entries in the source; they are usually repeats but may differ in a detail not shown here. Equal values may be shown once.

The nature of series [1]: Metabolic stability in rat liver microsomes (RLM). In kind it is in vitro ADME. Conditions: rat, liver microsomes, pH 7.4, 1 μM compound, 1.0 mg/mL microsome, NADPH; read-out: RLM t1/2. On the procedure: Compounds were also tested for metabolic stability in both rat liver microsomes (RLM) and human liver microsomes (HLM) and their half-life calculated (See Table 6). The assay was performed as follows. The total volume for each incubation was 250 μL. A 100 μM DMSO solution of compound (diluted from 10 mM stock solution) was spiked into 50 mM KH2PO4 (pH 7.4) buffer containing liver microsome at a concentration of 1.0 mg/mL. The reaction was initiated by the addition of 50 μL of 1 mM NADPH. The final concentration of each compound was 1 μM (1% DMSO). The positive controls, phenacetin for CYP1A2, diclofenac for CYP2C9, omeprazole for CYP2C19, dextromethorphan for CYP2D6 and midazolam for CYP3A4 were added to a separate tube with the final substrate concentrations of 1 μM (1% DMSO) for evaluating the enzyme activities in the liver microsomes. At 0, 15, 30 and 60 min, an aliquot of 15 μL reaction mixtures were removed and 200 μL of methanol (with internal standard of 25 ng/mL propranolol) was added to quench the reaction. The resulting mixture was centrifuged and supernatant was used for LC-MS/MS analysis.
The signals for each compound, or the metabolites for the probe substrates and the internal standard were integrated and the peak area ratios to internal standard were generated. Percent parent remaining at a specified timepoint was calculated based on the peak area ratios at time 0 (as 100%) for in vitro metabolic stability studies in liver microsome and hepatocyte. The observed rate constant (kobs) for the metabolism of substrates was calculated by plotting the natural log of percentage substrate remaining versus time of incubation with the slope being kobs. The half-life (T1/2) was calculated according to the following equation: […]
(Liver microsomes are a subcellular fraction often used to study metabolism.)

Series [2] addresses T1, Parkin ligase (Homo sapiens, UniProt O60260).
T1 construct: Enzyme: Parkin-His tagged 203 μM (10.5 mg/ml)
T1 sequence (O60260 1-465): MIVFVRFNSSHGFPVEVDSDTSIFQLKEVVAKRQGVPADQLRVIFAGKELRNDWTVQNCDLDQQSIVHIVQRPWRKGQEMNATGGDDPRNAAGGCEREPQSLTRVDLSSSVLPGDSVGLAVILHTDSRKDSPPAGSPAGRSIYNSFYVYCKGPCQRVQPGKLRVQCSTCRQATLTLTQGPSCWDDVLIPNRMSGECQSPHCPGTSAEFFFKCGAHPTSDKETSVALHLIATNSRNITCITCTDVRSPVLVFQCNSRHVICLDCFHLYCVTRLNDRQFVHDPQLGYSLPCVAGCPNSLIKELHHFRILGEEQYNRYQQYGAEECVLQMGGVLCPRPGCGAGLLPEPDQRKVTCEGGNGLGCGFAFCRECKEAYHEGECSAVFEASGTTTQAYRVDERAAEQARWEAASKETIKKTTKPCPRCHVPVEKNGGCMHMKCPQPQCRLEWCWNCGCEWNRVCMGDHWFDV
In words: Activity-based probe assay using an ubiquitin vinyl sulfone probe (TR-FRET). Conditions: for EC50: activation of heat activated Parkin, HA-Ub-VS probe, read-out: Probe Assay EC50 (μM) [Example 2]. It counts as biochemical. On the procedure: An Ubiquitin vinyl sulfone probe can be used that irreversibly binds to the active site cysteine of Parkin ligase. Covalent attachment of the probe to the Parkin can be monitored by TR-FRET. Candidate activator compounds can be identified by increasing the activity of Parkin ligase due to an increase in TR-FRET signal. Screening for activating compounds can be distinguished from the controls as follows:
100% activation signal=Heat activated Parkin+100 nM control activator in DMSO. 0% activation signal=Heat activated Parkin+DMSO only. Parkin activators can be identified by an increase of the 0% activation signal TR-FRET signal.
• Assay Plate: White 384 well plate (Corning 3572) • Enzyme: Parkin-His tagged 203 μM (10.5 mg/ml) • Probe: Ubiquitin vinyl-sulfone (HA-Ub-VS Boston Biochem U-212) • DMSO: DMSO (Sigma cat # D4540-100ML) • Reaction Buffer: 50 mM HEPES (pH 8.5), 150 mM NaCl, 0.01% Tween 20, 0.1% BSA • Detection Buffer: 50 mM HEPES (pH 8.5), 150 mM NaCl, 0.01% Tween 20, 0.1% BSA, 800 mM KF • Detection Reagent A: 2.6 nM Anti-6HIS-Eu cryptate and 40 nM Anti-HA-XL665 in detection buffer • Eu cryptate: Anti-6HIS-Eu cryptate (CisBio 61HISKLA) • XL665: Anti-HA-XL665 (CisBio 610HAXLA) Enzyme Reaction (15 min Pre Incubation Parkin with Activator Only) • Parkin: 40 nM • HA-Ub-VS Probe: 70 nM • Activator/DMSO: 2× Activator/2% DMSO • Reaction time: 60 minutes • Temperature: 22° C. • Total volume: 10 μl reaction
• Take 10 μl of Enzyme Reaction above and add 10 μl detection Reagent A under the following conditions: • Reaction time: 60 minutes • Temperature: 22° C. • Total volume: 20 μl
Assay procedure (Using HP D-300 compound dispenser and Bravo for the operation):
1) Heat activate Parkin in reaction buffer (500 μl/1.5 ml tube: Eppendorf Thermomixer 5 minutes, 400 rpm at 58° C. and put on ice until needed). 2) Load assay plate wells with 4.8 μl 84.5 nM Parkin in reaction buffer by use of Bravo. 3) Deliver 0.2 μl 200× activator candidates in DMSO by use of HP D-300 compound dispenser. Highest 200× concentration=20 μm and then twofold dilutions. 4) Spin 1000 rpm, 2 minutes, at room temp. 5) Incubate plate for 15 minutes at room temp. 6) Add 5 μl 140 nM HA-Ub-VS Probe in reaction buffer by use of Bravo. 7) Spin 1000 rpm, 2 minutes, at room temp. 8) Incubate plate for 60 minutes at room temp. 9) Add 10 μl 2.6 nM Anti-6HIS-Eu cryptate and 40 nM Anti-HA-XL665 in detection buffer. 10) Spin 1000 rpm, 2 minutes, at room temp. 11) Incubate plate for 60 minutes at room temp. 12) Read plates on Perkin Elmer Envision instrument with the following parameters:
LANCE dual laser protocol loaded into the Envision® software
Top Mirror: LANCE/DELFIA Duel/Bias (Bar code 446) Emission Filter: APC 665 EM (Bar code 205) 2nd Emission Filter: Europium 615 EM (Bar code 203) Read […] (channel 1) and 615 nm (channel 2) wavelengths on Envision®
Data Analysis: The Data can be read in CSV files. There are two tables in those CSV files, which are the values of 655 nm (channel 1) and 615 nm (channel 2) wavelengths respectively. The data is converted to an HTRF Ratio=(Channel 1/Channel 2)*10,000
The average of all the 0 uM controls (DMSO only)=BKGD (Background—0% activation). Subtract BKGD from each HTRF Ratio value=HTRF-BKGD. The average of all the […] 100 nM control activator in DMSO controls=Max (100% activation). The following equation is then used to calculate % Activation for each well/candidate as follows: % Activation=(HTRF−BKGD/Max)*100.
Graphpad Prisim was used with Transform X values: X=Log(X) and nonlinear regression (dose-response-stimulation): Log(agonist) vs Response—variable slope (four parameters) with constrains set to Bottom=0 and Top=100.
(In general: TR-FRET usually uses a lanthanide donor and a delayed reading to cut background.)

With `Cc1cc(S)c2ncc(-c3ccc(F)cc3)n2n1` [Compound F3], the half-life at 1 μM in series [1] was determined as 67 min. In series [2], the EC50 was found to be 3 µM.
As to `Cc1cc(S)n2ncc(-c3cccc(N(C)C)c3)c2n1` [UU], in series [1], the half-life at 1 μM came out at 4.2 min. In addition, the EC50 in series [2] stood at 10.7 µM.
The corresponding values for `Cc1nc2c(-c3ccccc3)c(C)nn2c(S)c1Cc1ccncc1` [Compound AA, 2,5-dimethyl-3-phenyl-6-(4-pyridylmethyl)pyrazolo[1,5-a]pyrimidine-7-thiol] are 112 min and 10.9 µM.
The matching figures for `Cc1nc2c(-c3ccccc3)cnn2c(S)c1Cc1ccccc1` [Compound CC, 6-benzyl-5-methyl-3-phenyl-pyrazolo[1,5-a]pyrimidin-7-thiol]: 55.9 min and 5.8 µM.
The corresponding values for `Cc1ccc(-c2cnn3c(S)cc(C)nc23)cc1` [TT] are 8.1 min and 6.8 µM.
Turning to `Cc1nn2c(S)c(CC(C)C)cnc2c1-c1ccccc1` [Compound G3], in series [1], the half-life at 1 μM came to 22 min. In addition, in series [2], the EC50 came out at 15 µM.
For `Cc1nn2c(S)c3c(nc2c1-c1ccccc1)CN(C)CC3` [Compound C3], the half-life at 1 μM in series [1] turned out to be 277 min. In addition, the EC50 in series [2] is 27 µM.
The matching figures for `Cc1nn2c(S)c(CCc3ccccc3)cnc2c1-c1ccccc1` [Compound E3]: 3 min and 4 µM.
The corresponding values for `Cc1nn2c(S)c(C)c(Cc3ccccc3)nc2c1-c1ccccc1` [ZZ] are 44 min and 0.5 µM.
The matching figures for `Cc1ccc(-c2cnn3c(S)c4c(nc23)CN(C)CC4)cc1` [Compound S3]: over 500 min and 6 µM.
On to `Cc1nc2c(-c3cccnc3)c(C)nn2c(S)c1Cc1ccccc1` [Compound D3], for which, in series [1], the half-life at 1 μM is 63 min. In addition, the 50% effective concentration (EC50) in series [2] is 24 µM.
In the case of `Cc1nc2c(-c3ccccc3)c(C)nn2c(S)c1Cc1ccccc1` [Compound A, 6-benzyl-2,5-dimethyl-3-phenylpyrazolo[1,5-a]pyrimidine-7-thiol], the half-life at 1 μM in series [1] amounted to 84.5 min. Also, in series [2], the “Parkin Ligase reaction with the Activity-based Ubiquitin vinyl sulfone probe” value is recorded as “increases”; the EC50 was 0.4 µM and 3.1 µM and 0.7 µM.
For the compound `Cc1nc2c(-c3ccccc3)cnn2c(O)c1Cc1ccccc1` [Compound U, 6-benzyl-5-methyl-3-phenyl-pyrazolo[1,5-a]pyrimidin-7-ol], the half-life at 1 μM in series [1] amounted to 29 min. Also, the EC50 in series [2] was 8.73 µM.
The corresponding values for `Cc1cc(C)c2c(n1)nn1c(S)cc(C)nc21` [Compound E] are 55.9 min and 4 µM.
With `Cc1cc(S)n2ncc(-c3ccc(F)cc3)c2n1` [Compound L, 3-(4-fluorophenyl)-5-methylpyrazolo[1,5-a]pyrimidine-7-thiol], the half-life at 1 μM in series [1] came out at 68 min. Also, in series [2], the “Parkin Ligase reaction with the Activity-based Ubiquitin vinyl sulfone probe” value is reported as “increases” and the half-maximal effective concentration (EC50) was determined as 18 µM.
For the compound `COc1ccc(-c2cnn3c(S)cc(C)nc23)cc1` [SS], in series [1], the half-life at 1 μM turned out to be 12.9 min. Moreover, the EC50 in series [2] came to 8.9 µM.

Broadly, the EC50 is the concentration at which the effect is half-maximal.
